Measured values taken from EP4361137A1, “PRUNE1 INHIBITORS AND THERAPEUTIC USE THEREOF” (CEINGE Biotecnologie Avanzate Franco Salvatore s.c. a r.l., priority 2022, dated 2024).

Columns and labels:
MATH1-Prune1/ TP53-/- = experiment: Orthotopic implantation of MATH1-Prune1/TP53-/- cells in immunocompetent syngeneic mice, survival analysis; type: in vivo, FVB WT mice
Experimental: MATH1-Prune1/ TP53-/- were implanted into the right cerebellar hemisphere of female (n.24) immunocompetent syngeneic mice model (5 weeks old, strain: FVB WT). to establish intracerebellar MATH1-Prune1/ TP53-/- models, mice were anaesthetised with Ketamine/ Xylazine (87.5 mg/kg, 12.5 mg/kg, respectively). The mice were then placed in a stereotactic frame by hooking their incisors onto the frame hold. […] The mice were monitored daily for development of potential neurological deficits. For LEO-AA7.5(S)T in-vivo treatment, starting after 10 days from tumour implantation (i.e., once the tumours were established) the mice (grouped according to body weight values) were injected intraperitoneally with LEO-AA7.5(S)T at 6 mg/kg/day, or with water as the vehicle for the control group. mouse body weights were measured at the indicated time points. Mouse survival was closely monitored during the entire experimental period.

CD4+/ CD8+ T cells = experiment: Tconv to Treg conversion of T cells grown in conditioned media (immunofluorescence CD4/FOXP3); type: cell-based, FVB mice
Experimental: The isolation of untouched mouse CD4+/ CD8+ T cells from single-cell suspensions from spleen of n.2 naive FVB mice were performed by using Pan T Cell Isolation Kit II, mouse (130-095-130, Miltenyi biotec), according to the manufacturer instruction. Once isolated, T cells were grown for 48 hours in the conditioned media previously collected for 24 hours from pooled vehicle- or 10 µM LEO-AA7.5(S)T-treated MATH1-Prune1/TP53-/- cells.
T cells grown for 48 hours in conditioned media collected from vehicle- or LEO-AA7.5(S)T-treated MATH1-Prune1/TP53-/- cells were fixed in 4% paraformaldehyde in phosphate-buffered saline (PBS) for 30 min, washed three times with PBS, and permeabilized for 15 min with 0.1% Triton X-100 (215680010; Acros Organics) diluted in PBS. The cells were then blocked with 3% bovine serum albumin (A9418; Sigma) in PBS for 1 h at room temperature. The samples were incubated with the appropriate primary antibodies overnight at 4 °C: anti-FOXP3 (1:2000; ab54501; Abcam); anti-CD4 (1:100; sc-19641, SantaCruz). After washing with PBS, the samples were incubated with the secondary antibody at room temperature for 1 h, as anti-mouse Alexa Fluor 488 (1:200; ab 150113; Abcam) or anti-rabbit Alexa Fluor 546 (1:200; Abcam). DNA was stained with DAPI (1:1000; #62254, Thermo Fisher). The slides were washed and mounted with cover slips with 50% glycerol (G5150; Sigma-Aldrich). […]

human and murine Prune1 = experiment: qPCR of PRUNE1 mRNA in MMTV-Prune1/Wnt1 cells; type: cell-based; parameters: dose or concentration left out as unconfirmed
Experimental: D425.MED and MMTV-Prune1/Wnt1 cells were plated and treated with increasing concentrations of LEO-AA7.5(S)T for 24 hours. Water-treated cells were used as negative control for the experiments.
RNA samples were extracted using TRIzol RNA Isolation Reagent (15596026, Invitrogen), according to the manufacturer instructions. Reverse transcription was performed with 5× All-In-One RT MasterMix (g592; ABM), according to the manufacturer instructions. The reverse transcription products (cDNA) were amplified by qRT-PCR using an RT-PCR system (7900; Applied Biosystems, Foster City, CA, USA). The cDNA preparation was through the cycling method, by incubating the complete reaction mix as follows: cDNA reactions: (37 °C for 10 min and 60 °C for 15 min); Heat-inactivation: 95 °C for 3 min; Hold stage: 4 °C. The targets were detected with the SYBR green approach, using BrightGreen BlasTaq 2× PCR MasterMix (G895; ABM). Human ACTB was used as the housekeeping gene to normalize the quantification cycle (Cq) values of the other genes. […] Relative expression of the target genes was determined using the 2^-ΔΔCq method, as the fold increase compared with the controls. […]

COc1ccc(CNc2ncnc(N3CCC[C@H](CO)C3)n2)cc1.Cl [LEO-AA7.5(S)T, (S)-(1-(4-((4-methoxybenzyl)amino)-1,3,5-triazin-2-yl)piperidin-3-yl)methanol HCl salt]
toxic effects (body weight) (MATH1-Prune1/ TP53-/-; 6 mg/kg/day intraperitoneally): no toxic effects
overall survival (MATH1-Prune1/ TP53-/-; 6 mg/kg/day intraperitoneally from day 10 after implantation): improved overall survival
percentage of Tregs (CD4+FOXP3+) among T cells (CD4+/ CD8+ T cells; T cells 48 hours in conditioned media of cells treated with 10 µM for 24 hours, vs vehicle conditioned media): decrease
inhibition of the conversion from Tconv to Treg cells, compared with 100 µM AA7.1 (CD4+/ CD8+ T cells; ex vivo, 10 µM vs 100 µM AA7.1): comparable
degradation of human and murine Prune transcript (human and murine Prune1): enhance the degradation
